# Measured values as given in BindingDB's records for doi:10.1016/0960-894X(94)85036-4 (1994).
# Molecular target: Type-1 angiotensin II receptor (Rattus norvegicus)
# Assay: […] inhibitory concentration against Angiotensin II receptor, type 1 of rat adrenal membrane
smiles,measurement,value
CCCCOC(=O)NS(=O)(=O)c1ccccc1-c1ccc(Cn2c(CCCC)nc3ccc(NC(=O)N(C)C(C)C)cc3c2=O)cc1 [2-Butyl-3-(2'-(butyloxycarbonylaminosulphonyl)-biphenyl-4-ylmethyl)-6-(N-isopropyl-N-methyl-aminocarbonylamino)-3H-quinazolin-4-one],IC50,4 nM
